Experimental data published in patent US20200197385A1, “THERAPEUTIC AGENT FOR CANCER CONTAINING AXL INHIBITOR AS ACTIVE INGREDIENT” (ONO PHARMACEUTICAL CO., LTD., priority 2017, published 2020).

Key:
[1] = tested on: human acute myeloid leukemia cell line CMK-11-5; test: In vitro combined use test, Cell Counting Kit-8; assay type: cell-based; details: 72 hours
Protocol: A human acute myeloid leukemia cell line CMK-11-5 was prepared in an RPMI medium containing 10% FBS (10% FBS-RPMI medium) at about 30000 cells/mL, and seeded in a 96 well plate at 50 μL/well. To this, 10% FBS-RPMI medium containing ABBV-075 having 4 times higher concentration than the final concentration was added at 25 μL/well. Furthermore, 10% FBS-RPMI medium containing the compound A having 4 times higher concentration than the final concentration was added at 25 μL/well (final volume: 100 μL/well DMSO concentration: 0.2%). The plate was incubated at 37° C. in humidified air including 5% CO2 for 72 hours. After culturing, absorbance at 450 nm of a formazan product, proportional to the number of living cells, was measured using Cell Counting Kit-8. Percentage (%) of absorbance at 450 nm of each compound-treated group with respect to absorbance at 450 nm of the vehicle group was calculated.

[2] = tested on: mouse pancreatic cancer cell line Pan02 orthotopic implantation model; test: Antitumor action, orthotopic transplantation model, survival; assay type: in vivo; details: Pan02 orthotopic implantation mice; compound A 20 mg/kg/day via the diet; gemcitabine 60 mg/kg i.p. twice a week; Day 0 to Day 95
Protocol: For the compound A, mouse feed CRF-1 containing 0.013% compound A was manufactured by Oriental Yeast Co., Ltd. so as to be administered in 20 mg/kg/day as administration via the diet. Gemcitabine was obtained from Wako Pure Chemical Industries, Ltd. C57/BL6 mouse pancreatic cancer cell line Pan02 was transplanted into the pancreas of the same type syngeneic mice (C57/BL6, female, 6-week old (Charles River Laboratories Japan, Inc.)) to produce Pan02 orthotopic implantation mice. On day 7 after transplantation, based on the body weight, the mice were assigned to four groups, i.e., a vehicle group, a gemcitabine group, compound A group, a combined use group of gemcitabine+compound A, and the compound A (each n=8 to 9). The day on which group assignment was carried out was defined as Day 0. To the vehicle group and the compound A group, PBS (10 mL/kg, twice a week) was intraperitoneally administered. To the gemcitabine group and a combined use group of gemcitabine+compound A, gemcitabine (60 mg/10 mL/kg, twice a week) was administered by intraperitoneal administration. To the compound A group and the combined use group of gemcitabine+compound A, CRF-1 containing 0.013% compound A was fed from Day 0. From Day 0 to Day 95, the survival time of each mouse in each group was evaluated. […]

[3] = tested on: human acute lymphatic leukemia cell line CCRF-HSB-2; test: In vitro combined use test, Cell Titer-Glo; assay type: cell-based; details: 72 hours
Protocol: A human acute lymphatic leukemia cell line CCRF-HSB-2 was prepared in an IMDM medium containing 10% FBS (10% FBS-IMDM medium) at about 200000 cells/mL, and seeded in a 96 well plate at 50 μL/well. […] The plate was incubated at 37° C. in humidified air including 5% CO2 for 72 hours. After culturing, relative luminescence unit (RLU), proportional to cellular endogenous ATP amount, was measured by Cell Titer-Glo Luminescent Cell Viability Assay (registered trademark). Percentage (%) of RLU of each compound-treated group relative to RLU of the vehicle group was measured.

[4] = tested on: leukemia cells in bone marrow derived from patient with acute myeloid leukemia; test: Proliferation test (CFDA-SE), bone marrow sample of acute myeloid leukemia patient, compound A combined with anticancer drugs; assay type: cell-based, human; details: 96 hours, Ci<1 synergistic action
Protocol: (§1) Initial evaluation: Bone marrow samples were obtained from an adult acute myeloid leukemia patient. […] Furthermore, to evaluate the initial survival rate of cells, Annexin V was added to the above-mentioned combination of MAb.
Proliferation test: Proliferation was measured using a CFDA-SE coloring agent. A coloring agent which had been prepared in advance was placed in 15-mL tube including bone marrow enough to obtain about 6000 cells/well of living leukemia cells. Thereafter, they were diluted with the medium such that the total volume became 1 mL. After the resultant product was mixed well by vortex, the mixture was incubated on a rotator at room temperature with light shielded for 10 minutes. Then, the tube was filled with cool RPMI1640 including 10% FBS (medium 2), and incubated on ice for 5 minutes to stop the reaction. Thereafter, the cells were washed with the medium 2 twice. For the final re-suspension before plating and incubation, the medium 1 replenished with a cytokine cocktail was used. […] The plate containing the sample was incubated at 37° C. in humidified air including 5% CO2 for 96 hours. In order to prepare a sample for analysis, erythrocytes were lysed after completion of incubation, and then, the sample was stained with the best combination of Mab and Annexin V to identify the leukemia cells in the sample. Finally, the plate was analyzed by ExviTech (registered trademark) platform.
Data analysis: Synergistic analysis was carried out by calculating Combination Index (Ci) as described in Cancer Research, Vol. 70, No. 2, pp. 440-446, 2010. […] Note here that the meaning of the Ci value is regarded as follows.
(§2) Ci<1: synergistic action, Ci=1: additive action, Ci>1: antagonistic action

[5] = tested on: leukemia cells in bone marrow derived from patient with acute myeloid leukemia; test: Reduction test, bone marrow sample of acute myeloid leukemia patient, compound A combined with anticancer drugs; assay type: cell-based, human; details: 96 hours, Ci<1 synergistic action
Protocol: as §1
The plate containing the sample was incubated at 37° C. in humidified air including 5% CO2 for 96 hours. In order to prepare a sample for analysis, erythrocytes were lysed after completion of incubation, and then, the sample was stained with the best combination of Mab and Annexin V to identify the leukemia cells in the sample. Finally, the plate was analyzed by ExviTech (registered trademark) platform.
Note here that the meaning of the Ci value is regarded as follows.
as §2

For `CCS(=O)(=O)Nc1ccc(Oc2ccc(F)cc2F)c(-c2cn(C)c(=O)c3[nH]ccc23)c1` [ABBV-075], which “absorbance at 450 nm in combined use with compound A compared with single use of each agent” value [1] is on record?
Its value is “lowered”.

`COc1cc2nccc(Oc3ccc(NC(=O)c4cc5c(n(-c6ccccc6)c4=O)CCCC5=O)nc3)c2cc1OC` [Compound A, N-{5-[(6,7-dimethoxy-4-quinolinyl)oxy]-2-pyridinyl}-2,5-dioxo-1-phenyl-1,2,5,6,7,8-hexahydro-3-quinolinecarboxamide] was tested. Which “Median value of survival days” value [2] did it give?
The value was 54 days.

With `Nc1ccn([C@@H]2O[C@H](CO)[C@@H](O)[C@@H]2O)c(=O)n1` [Cytarabine, cytarabine] as the molecule, how does the “Ci median value in combined use with compound A” value (from here on “Ci median value in combined use”) [3] read?
The value was 0.696.

And the “RLU in combined use with compound A compared with single use of each agent” value [3]?
The value was “lowered”.

With `COc1cccc2c1C(=O)c1c(O)c3c(c(O)c1C2=O)C[C@@](O)(C(C)=O)C[C@@H]3O[C@H]1C[C@H](N)[C@H](O)[C@H](C)O1` [Daunorubicin, daunorubicin] as the molecule, how does the “Ci median value in combined use” value [3] read?
The value was 0.936.

And the “RLU in combined use with compound A compared with single use of each agent” value [3]?
Its value is “lowered”.

Which “Ci median value in combined use” value [3] does the source give for `C[C@@H]1C[C@H]2[C@@H]3CCC4=CC(=O)C=C[C@]4(C)[C@@]3(F)[C@@H](O)C[C@]2(C)[C@@]1(O)C(=O)CO` [Dexamethasone, dexamethasone] here?
Its value is 0.589.

With `Nc1ccn([C@@H]2O[C@H](CO)[C@@H](O)C2(F)F)c(=O)n1` [Gemcitabine, gemcitabine] as the molecule, how does the “Median value of survival days” value [2] read?
The value was 67 days.

With `CCc1nc(C(N)=O)c(Nc2ccc(N3CCC(N4CCN(C)CC4)CC3)c(OC)c2)nc1NC1CCOCC1` [Gilteritinib, gilteritinib] as the molecule, how does the “Ci median value in combined use” value [4] read?
The value was 0.495.

Which “Ci median value in combined use” value [5] does the source give for `COc1cc(C(=O)O)ccc1NC(=O)[C@@H]1N[C@@H](CC(C)(C)C)[C@](C#N)(c2ccc(Cl)cc2F)[C@H]1c1cccc(Cl)c1F` [Idasanutlin, idasanutlin] here?
Its value is 0.719.

`CO[C@@H]1[C@H](N(C)C(=O)c2ccccc2)C[C@H]2O[C@]1(C)n1c3ccccc3c3c4c(c5c6ccccc6n2c5c31)C(=O)NC4` [Midostaurin, midostaurin] was tested. Which “Ci median value in combined use” value [4] did it give?
Its value is 0.673.

Which “Ci median value in combined use” value [5] does the source give for `CCCCc1nc2cc(/C=C/C(=O)NO)ccc2n1CCN(CC)CC` [Plasinostat, plasinostat] here?
The value was 0.440.

With `CC[C@@H]1C(=O)N(C)c2cnc(Nc3ccc(C(=O)N[C@H]4CC[C@H](N5CCN(CC6CC6)CC5)CC4)cc3OC)nc2N1C(C)C` [Volasertib, volasertib] as the molecule, how does the “Ci median value in combined use” value [4] read?
The value was 0.830.
